For the test, the system named is P388 leukemia ip, CD2F1 mice, survival T/C. As to the kind of experiment: NCI In Vivo Anticancer Drug Screen. Data for tumor model P388 Leukemia (intraperitoneal) in CD2F1 (CDF1) mice. The conditions noted are these: endpoint: median survival time, higher = longer survival. Summed up: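 Mice carrying the transplanted tumor received test compound or vehicle. Survival was recorded in each group, and the value is the treated-group measurement divided by that of the vehicle-treated control group.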

Setting [1] is: dose: 100.0 mg/kg/injection, schedule: Q04DX003 (ip), vehicle: saline.
The mark [2] stands for this setting: dose: 200.0 mg/kg/injection, schedule: Q04DX003 (ip), vehicle: saline.
Setting [3] is: dose: 60.0 mg/kg/injection, schedule: Q01DX005 (ip), vehicle: saline with Tween-80.
Setting [4] is: dose: 120.0 mg/kg/injection, schedule: Q01DX005 (ip), vehicle: saline with Tween-80.
[5] abbreviates: dose: 240.0 mg/kg/injection, schedule: Q01DX005 (ip), vehicle: saline with Tween-80.
Setting [6] is: dose: 100.0 mg/kg/injection, schedule: Q04DX003 (ip), vehicle: saline with Tween-80.
[7] abbreviates: dose: 200.0 mg/kg/injection, schedule: Q04DX003 (ip), vehicle: saline with Tween-80.
Setting [8] is: dose: 50.0 mg/kg/injection, schedule: Q01DX009 (ip), vehicle: saline.
Where [9] appears, read: dose: 100.0 mg/kg/injection, schedule: Q01DX009 (ip), vehicle: saline.
[10] abbreviates: dose: 200.0 mg/kg/injection, schedule: Q01DX009 (ip), vehicle: saline.
Where [11] appears, read: dose: 50.0 mg/kg/injection, schedule: Q01DX009 (ip), vehicle: saline with Tween-80.
Setting [12] is: dose: 50.0 mg/kg/injection, schedule: Q01DX005 (ip), vehicle: saline with Tween-80.
The mark [13] stands for this setting: dose: 100.0 mg/kg/injection, schedule: Q01DX005 (ip), vehicle: saline with Tween-80.
Setting [14] is: dose: 200.0 mg/kg/injection, schedule: Q01DX005 (ip), vehicle: saline with Tween-80.
The mark [15] stands for this setting: dose: 100.0 mg/kg/injection, schedule: Q01DX009 (ip), vehicle: saline with Tween-80.
[16] abbreviates: dose: 200.0 mg/kg/injection, schedule: Q01DX009 (ip), vehicle: saline with Tween-80.

Molecules are shown by their SMILES. Where “and” joins values, the source holds several entries; their conditions need not be identical. Equal values may be shown once. Toxic doses and inconclusive results are not listed.

Regarding `CNC(=O)N(C)C(C)=O`, the T/C is 123 % of control and 94 % of control under setting [1]; 99 % of control and 124 % of control under setting [2].
On to `CC(=NCCCCN=C(C)c1cc(O)cc(Br)c1O)c1cc(O)cc(Br)c1O.[Co]`, for which the T/C is 90 % of control under setting [3], 98 % of control under setting [4] and 94 % of control under setting [5].
As for `CCCCN(C)N=Nc1c(C(N)=O)n[nH]c1C`, the T/C runs as follows: (dose: 44.0 mg/kg/injection, schedule: Q04DX003 (ip), vehicle: saline with Tween-80) 122 % of control; under setting [6], 150 % of control; under setting [7], 90 % of control.
`COc1cc2c(c(OC)c1OC)-c1ccc(OC)c(=O)cc1C([N+](C)(C)C)CC2` (stereo unspecified): the T/C runs as follows: (dose: 2.5 mg/kg/injection, schedule: Q01DX009 (ip), vehicle: Klucel (hydroxypropylcellulose) (HPC)) 94 % of control; (dose: 5.0 mg/kg/injection, schedule: Q01DX009 (ip), vehicle: Klucel (hydroxypropylcellulose) (HPC)) 100 % of control; (dose: 10.0 mg/kg/injection, schedule: Q01DX009 (ip), vehicle: Klucel (hydroxypropylcellulose) (HPC)) 103 % of control; (dose: 20.0 mg/kg/injection, schedule: Q01DX009 (ip), vehicle: Klucel (hydroxypropylcellulose) (HPC)) 100 % of control.
With `ClCC1CCN(Cc2ccccc2)CC1`, the T/C was 97 % of control under setting [6] and 100 % of control under setting [7].
In the case of `C1CN2CN3CCN(CN1C3)C2`, the T/C runs as follows: (dose: 6.25 mg/kg/injection, schedule: Q01DX009 (ip), vehicle: saline) 108 % of control; under setting [8], 158 % of control; under setting [9], 168 % of control.
For the compound `O=[N+]([O-])c1cc2c(cc1Cl)C1C(C3C2C2(Cl)C(Cl)=C(Cl)C3(Cl)C2(Cl)Cl)C2(Cl)C(Cl)=C(Cl)C1(Cl)C2(Cl)Cl` (stereo unspecified), the T/C was 101 % of control under setting [8], 109 % of control under setting [9] and 106 % of control under setting [10].
As for `CSc1nc(C)c(Br)c(Sc2nc(N)nc3nc[nH]c23)n1`, the T/C was 104 % of control (dose: 12.5 mg/kg/injection, schedule: Q01DX009 (ip), vehicle: saline with Tween-80); 113 % of control and 122 % of control under setting [11]; 95 % of control under setting [7].
For the compound `O=C(O)CC1(C(=O)O)CCC(O)CC1` (stereo unspecified), the T/C under setting [8] is 100 % of control, the T/C under setting [9] was 107 % of control and the T/C under setting [10] is 100 % of control.
Turning to `CC(C)(C)c1ccc(N)c(N)c1`, the T/C (dose: 50.0 mg/kg/injection, schedule: Q01DX009 (ip), vehicle: DMSO) is 98 % of control and the T/C (dose: 100.0 mg/kg/injection, schedule: Q01DX009 (ip), vehicle: DMSO) is 99 % of control.
On to `N#CC1CCCC(CCc2ccccc2)(c2ccccc2)C1=O` (stereo unspecified), for which the T/C by setting is: (dose: 50.0 mg/kg/injection, schedule: Q01DX009 (ip), vehicle: Klucel (hydroxypropylcellulose) (HPC)) 101 % of control; (dose: 100.0 mg/kg/injection, schedule: Q01DX009 (ip), vehicle: Klucel (hydroxypropylcellulose) (HPC)) 104 % of control; (dose: 200.0 mg/kg/injection, schedule: Q01DX009 (ip), vehicle: Klucel (hydroxypropylcellulose) (HPC)) 98 % of control.
As to `Nc1ncnc2c1ncn2C1C=C(CO)C(O)C1O` (stereo unspecified), the T/C (dose: 1.0 mg/kg/injection, schedule: Q01DX009 (ip), vehicle: saline) is 163 % of control; the T/C (dose: 2.0 mg/kg/injection, schedule: Q01DX009 (ip), vehicle: saline) is 163 % of control; the T/C (dose: 4.0 mg/kg/injection, schedule: Q01DX009 (ip), vehicle: Klucel (hydroxypropylcellulose) (HPC)) was 161 % of control; the T/C (dose: 4.0 mg/kg/injection, schedule: Q01DX009 (ip), vehicle: saline) was 156 % of control; the T/C (dose: 8.0 mg/kg/injection, schedule: Q01DX009 (ip), vehicle: Klucel (hydroxypropylcellulose) (HPC)) was 153 % of control and 161 % of control; the T/C (dose: 8.0 mg/kg/injection, schedule: Q01DX009 (ip), vehicle: saline) was 152 % of control and 182 % of control.
Regarding `Nc1ccccc1C(=O)CCc1ccccc1`, the T/C reads like this: under setting [3], 100 % of control; under setting [4], 99 % of control; under setting [5], 97 % of control.
`CC(=O)OC1COC(Nc2[nH]c(=O)n(C)c(=O)c2C(=O)CCl)C(OC(C)=O)C1OC(C)=O` (stereo unspecified): the T/C reads like this: under setting [12], 104 % of control; under setting [13], 96 % of control; under setting [14], 93 % of control.
For `CCCNC(=O)c1ccccc1C(=O)NC1(C(=O)NCCC)CCCC1`, in that order: 97 % of control, 96 % of control and 96 % of control.
As for `C=C(C)C(=O)OC1c2c(C)coc2C(=O)C2CCCC(C)C21C` (stereo unspecified), the T/C (dose: 25.0 mg/kg/injection, schedule: Q01DX009 (ip), vehicle: saline with Tween-80) was 101 % of control; the T/C under setting [11] was 98 % of control; the T/C under setting [15] is 102 % of control; the T/C under setting [16] is 96 % of control.
Regarding `COc1cc2cnc(-c3ccncc3)cc2cc1OC`, the T/C by setting is: under setting [1], 95 % of control; under setting [2], 108 % of control.
As for `O=c1[nH]c2c([N+](=O)[O-])cc(Cl)cc2nc1/C=C(\O)c1ccccn1`, the T/C is 101 % of control (dose: 60.0 mg/kg/injection, schedule: Q01DX005 (ip), vehicle: Klucel (hydroxypropylcellulose) (HPC)); 99 % of control (dose: 120.0 mg/kg/injection, schedule: Q01DX005 (ip), vehicle: Klucel (hydroxypropylcellulose) (HPC)); 98 % of control (dose: 240.0 mg/kg/injection, schedule: Q01DX005 (ip), vehicle: Klucel (hydroxypropylcellulose) (HPC)).
Take `O=C(O)CCCC(C(=O)O)N1C(=O)c2ccccc2C1=O` (stereo unspecified): the T/C is, setting by setting: under setting [12], 94 % of control; under setting [13], 93 % of control; under setting [14], 87 % of control.
Take `COc1cc(C(CC(C)=O)c2cc3c(cc2OC(C)=O)OCO3)cc(OC)c1OC` (stereo unspecified): the T/C was 95 % of control (dose: 30.0 mg/kg/injection, schedule: Q01DX005 (ip), vehicle: saline with Tween-80); 100 % of control and 93 % of control under setting [3]; 120 % of control under setting [4].
`CC(=O)Nc1ccc(C(C)=O)cc1`: the T/C runs as follows: under setting [11], 93 % of control; under setting [15], 89 % of control; under setting [16], 94 % of control.
On to `NC(=O)c1[nH]c(N=Nc2ccccc2)nc1N`, for which the T/C is, setting by setting: (dose: 100.0 mg/kg/injection, schedule: Q04DX003 (ip), vehicle: Klucel (hydroxypropylcellulose) (HPC)) 102 % of control; (dose: 200.0 mg/kg/injection, schedule: Q04DX003 (ip), vehicle: Klucel (hydroxypropylcellulose) (HPC)) 102 % of control; (dose: 400.0 mg/kg/injection, schedule: Q04DX003 (ip), vehicle: Klucel (hydroxypropylcellulose) (HPC)) 103 % of control.
With `CCC/C=C/C=C/C(=O)OC1/C(=C/C(=O)OC)CC2CC(C(C)O)OC(=O)CC(O)CC3CC(OC(C)=O)C(C)(C)C(O)(CC4C/C(=C/C(=O)OC)CC(/C=C/C(C)(C)C1(O)O2)O4)O3` (stereo unspecified), the T/C runs as follows: (dose: 0.01 mg/kg/injection, schedule: Q01DX009 (ip), vehicle: saline + alcohol) 152 % of control; (dose: 0.03 mg/kg/injection, schedule: Q01DX009 (ip), vehicle: saline + alcohol) 186 % of control; (dose: 0.07 mg/kg/injection, schedule: Q01DX009 (ip), vehicle: saline + alcohol) 163 % of control and 196 % of control; (dose: 0.15 mg/kg/injection, schedule: Q01DX009 (ip), vehicle: saline + alcohol) 179 % of control; (dose: 18.75 micrograms/kg/injection, schedule: Q01DX009 (ip), vehicle: saline + alcohol) 175 % of control; (dose: 37.5 micrograms/kg/injection, schedule: Q01DX009 (ip), vehicle: saline + alcohol) 177 % of control. The T/C (dose: 75.0 micrograms/kg/injection, schedule: Q01DX009 (ip), vehicle: saline + alcohol) was 177 % of control.
Regarding `CNC(C)Cc1ccccc1` (stereo unspecified) (tested in a mixture with another compound), the T/C was 112 % of control (dose: 6.25 mg/kg/injection, schedule: Q01DX005 (ip), vehicle: saline with Tween-80); 103 % of control (dose: 12.5 mg/kg/injection, schedule: Q01DX005 (ip), vehicle: saline with Tween-80); 104 % of control (dose: 25.0 mg/kg/injection, schedule: Q01DX005 (ip), vehicle: saline with Tween-80); 116 % of control under setting [12].
For `Cc1cc(=O)n(-c2ccccc2)c(=O)[nH]1`, the T/C is, setting by setting: under setting [8], 104 % of control; under setting [9], 111 % of control; under setting [10], 111 % of control.

(Values after PubChem BioAssay AID330 (DTP/NCI, 2004).)
